How the values were obtained:
[1] = Crystal; DTA
[2] = molar enthalpy of vaporization or sublimation; conditions: 333.15 K, Crystal
[3] = Molar enthalpy of transition or fusion; conditions: Crystal; DSC
[4] = molar heat capacity at constant pressure; conditions: 101.33 kPa, Small sample (50 mg) DSC

[CH]1C=CC=C1.[CH]1C=CC=C1.[Fe] [ferrocene]
Conditions | Molar enthalpy of transition or fusion [kcal/mol] | Normal melting temperature [°C]
[1] | – | 175
[3] | 4.25 | –

[2]
Conditions | molar enthalpy [kcal/mol]
DSC | 17.3
Static calorimetry | 17.5

molar heat capacity at constant pressure [J/K/mol], [4]
Conditions | Crystal | Gas
293 K | 186.22 | 163.5
294 K | 186.78 | 164.13
295 K | 187.52 | 164.76
296 K | 188.08 | 165.39
297 K | 189.01 | 166.02
298 K | 189.75 | 166.65
298.15 K | 189.75 | –
299 K | 190.5 | 167.27
300 K | 191.24 | 167.9
301 K | 191.8 | 168.53
302 K | 192.36 | 169.15
303 K | 193.1 | 169.78
304 K | 193.84 | 170.4
305 K | 194.4 | 171.03
306 K | 195.15 | 171.65
307 K | 195.7 | 172.27
308 K | 196.45 | 172.9
309 K | 197.19 | 173.52
310 K | 197.94 | 174.14
311 K | 198.31 | 174.76
312 K | 199.24 | 175.38
313 K | 199.8 | 176
314 K | 200.54 | 176.61
315 K | 201.29 | 177.23
316 K | 202.03 | 177.85
317 K | 202.77 | 178.46
318 K | 203.33 | 179.07
319 K | 204.08 | 179.69
320 K | 204.45 | 180.3
321 K | 205.38 | 180.91
322 K | 205.94 | 181.52
323 K | 207.05 | 182.13
324 K | 207.61 | 182.74
325 K | 208.35 | 183.35
326 K | 209.1 | 183.96
327 K | 209.66 | 184.56
328 K | 210.22 | 185.17
329 K | 210.77 | 185.77
330 K | 211.33 | 186.37
331 K | 212.26 | 186.98
332 K | 213.01 | 187.58
333 K | 213.75 | 188.18
334 K | 214.49 | 188.78
335 K | 215.24 | 189.37
336 K | 215.8 | 189.97
337 K | 216.54 | 190.57
338 K | 217.28 | 191.16
339 K | 218.21 | 191.76
340 K | 218.77 | 192.35
341 K | 219.7 | 192.94
342 K | 220.26 | 193.53
343 K | 221.01 | 194.12
344 K | 221.56 | 194.71
345 K | 222.49 | 195.3
346 K | 223.24 | 195.88
347 K | 223.8 | 196.47
348 K | 223.98 | 197.05
349 K | 225.1 | 197.64
350 K | 226.77 | 198.22
351 K | 226.59 | 198.8
352 K | 226.96 | 199.38
353 K | 227.7 | 199.96

[Ni+2].c1cc[cH-]c1.c1cc[cH-]c1 [nickelocene]
Conditions | Molar enthalpy of transition or fusion [kcal/mol] | Normal melting temperature [°C]
[1] | – | 177.7
[3] | 4.54 | –

[2]
Conditions | molar enthalpy [kcal/mol]
DSC | 17.1
Static calorimetry | 17.2

molar heat capacity at constant pressure [J/K/mol], [4]
Conditions | Crystal | Gas
293 K | 199.08 | 171.05
294 K | 199.83 | 171.62
295 K | 200.59 | 172.19
296 K | 201.35 | 172.76
297 K | 202.1 | 173.33
298 K | 203.05 | 173.9
298.15 K | 203.23 | –
299 K | 203.8 | 174.47
300 K | 204.37 | 175.04
301 K | 205.31 | 175.6
302 K | 206.07 | 176.17
303 K | 206.63 | 176.74
304 K | 207.2 | 177.31
305 K | 208.15 | 177.88
306 K | 208.9 | 178.45
307 K | 209.66 | 179.02
308 K | 210.6 | 179.58
309 K | 211.36 | 180.15
310 K | 212.11 | 180.72
311 K | 212.68 | 181.29
312 K | 213.43 | 181.85
313 K | 214 | 182.42
314 K | 214.76 | 182.99
315 K | 215.51 | 183.55
316 K | 216.08 | 184.12
317 K | 216.83 | 184.68
318 K | 217.59 | 185.25
319 K | 218.35 | 185.81
320 K | 218.91 | 186.37
321 K | 219.67 | 186.94
322 K | 220.23 | 187.5
323 K | 221.37 | 188.06
324 K | 222.31 | 188.62
325 K | 223.07 | 189.19
326 K | 223.82 | 189.75
327 K | 224.58 | 190.31
328 K | 225.14 | 190.87
329 K | 225.71 | 191.43
330 K | 226.09 | 191.98
331 K | 226.84 | 192.54
332 K | 227.6 | 193.1
333 K | 228.17 | 193.66
334 K | 228.92 | 194.21
335 K | 229.49 | 194.77
336 K | 230.24 | 195.32
337 K | 230.62 | 195.88
338 K | 231.19 | 196.43
339 K | 231.76 | 196.98
340 K | 232.51 | 197.54
341 K | 233.08 | 198.09
342 K | 233.83 | 198.64
343 K | 234.21 | 199.19
344 K | 234.97 | 199.74
345 K | 235.53 | 200.29
346 K | 236.1 | 200.84
347 K | 236.67 | 201.38
348 K | 237.23 | 201.93
349 K | 237.99 | 202.48
350 K | 238.56 | 203.02
351 K | 238.93 | 203.56
352 K | 239.69 | 204.11
353 K | 240.07 | 204.65
